Experimental data reported in patent US8754226B2, “Piperidinyl-substituted lactams as GPR119 modulators” (Array BioPharma Inc., priority 2010, dated 2014).

Tested on: modified version of the GPR119 receptor (94% identity to human receptor)
Assay: cAMP production assay (LANCE cAMP kit, TR-FRET) in HEK-293 cells
Format: cell-based
Settings: for cAMP production in HEK-293 cells: HEK-293 cells stably expressing modified GPR119, test compounds 0.2 nM to 10 μM, one-hour incubation at ambient temperature; for Fold over baseline: increase in cAMP relative to basal levels, agonist activity if 1.5-fold or greater
How it was run: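 Doxycycline-induced (1 μg/mL, overnight) HEK-293 cells expressing modified GPR119 were thawed, 2000 cells/well, and exposed to compounds (0.2 nM-10 μM final, 0.5% DMSO) for 1 h at ambient temperature in HBSS/HEPES/BSA. cAMP was measured by LANCE TR-FRET against a standard curve. Agonism was defined as ≥1.5-fold over basal.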

| Structure (SMILES) | cAMP production in HEK-293 cells | Fold over baseline |
| --- | --- | --- |
| CCc1cnc(N2CCC(N3CCC[C@H](Nc4ccc(S(C)(=O)=O)cc4F)C3=O)CC2)nc1 [Example 40, (S)-1′-(5-ethylpyrimidin-2-yl)-3-(2-fluoro-4-(methylsulfonyl)phenylamino)-[1,4′-bipiperidin]-2-one] | 12.4 nmol | 2.2 |
| CCc1cnc(N2CCC(N3CCCC(Nc4ccc(S(C)(=O)=O)c(F)c4)C3=O)CC2)nc1 (stereo not drawn) [Example 63, 1′-(5-ethylpyrimidin-2-yl)-3-(3-fluoro-4-(methylsulfonyl)phenylamino)-[1,4′-bipiperidin]-2-one] | 16.2 nmol | 3.4 |
| CCc1ccc(N2CCC(N3CC[C@H](Nc4ccc(S(C)(=O)=O)cc4F)C3=O)CC2)nc1 [Example 27A, (S)-1-(1-(5-Ethylpyridin-2-yl)piperidin-4-yl)-3-(2-fluoro-4-(methylsulfonyl)phenylamino)pyrrolidin-2-one] | 12.9 nmol | 2.9 |
| CS(=O)(=O)c1cc(F)c(N[C@H]2CCN(C3CCN(c4ccc(C(F)(F)F)cn4)CC3)C2=O)c(F)c1 [Example 105, (S)-3-(2,6-difluoro-4-(methylsulfonyl)phenyl-amino)-1-(1-(5-(trifluoromethyl)pyridin-2-yl)piperidin-4-yl)pyrrolidin-2-one] | 11.5 nmol | 1.6 |
| O=C(c1ccc(O[C@H]2CCN(C3CCN(c4ncc(Cl)cc4F)CC3)C2=O)c(F)c1)N1CC[C@@H](O)C1 [Example 155, (S)-1-(1-(5-chloro-3-fluoropyridin-2-yl)piperidin-4-yl)-3-(2-fluoro-4-((R)-3-hydroxypyrrolidine-1-carbonyl)phenoxy)pyrrolidin-2-one] | 13.4 nmol | 2.5 |
| CCc1cnc(N2CCC(N3CCCC[C@H](Nc4cc(F)c(S(C)(=O)=O)cc4F)C3=O)CC2)nc1.Cl [Example 82, (S)-3-(2,5-difluoro-4-(methylsulfonyl)phenylamino)-1-(1-(5-ethylpyrimidin-2-yl)piperidin-4-yl)azepan-2-one hydrochloride] | 18.5 nmol | 4.0 |
| Cn1nccc1-c1cnc(N2CCC(N3CC[C@H](Nc4ccc(S(C)(=O)=O)cc4F)C3=O)CC2)nc1 [Example 32, (S)-3-(2-fluoro-4-(methylsulfonyl)phenylamino)-1-(1-(5-(1-methyl-1H-pyrazol-5-yl)pyrimidin-2-yl)piperidin-4-yl)pyrrolidin-2-one] | 10.9 nmol | 2.4 |
| O=C1[C@@H](Oc2ccc3[nH]ncc3c2)CCN1C1CCN(c2cnc(Cl)cn2)CC1 [Example 74, (S)-3-(1H-indazol-5-yloxy)-1-(1-(5-chloropyrazin-2-yl)piperidin-4-yl)pyrrolidin-2-one] | 8.6 nmol | 2.2 |
| CS(=O)(=O)c1cc(F)c(N[C@H]2CCCN(C3CCN(c4ccc(Cl)nn4)CC3)C2=O)cc1F [Example 52, (S)-1′-(6-chloropyridazin-3-yl)-3-(2,5-difluoro-4-(methylsulfonyl)phenylamino)-[1,4′-bipiperidin]-2-one] | 19.6 nmol | 4.6 |
| CCc1cnc(N2CCC(N3CCCC[C@H](Nc4ccc(S(C)(=O)=O)cc4F)C3=O)CC2)nc1.Cl [Example 79] | 18.0 nmol | 3.8 |
| CS(=O)(=O)c1ccc(N[C@H]2CCN(C3CCN(c4ncc(C(F)(F)F)cc4F)CC3)C2=O)c(F)c1 [Example 114, (S)-3-(2-fluoro-4-(methylsulfonyl)phenyl-amino)-1-(1-(3-fluoro-5-(trifluoromethyl)pyridin-2-yl)piperidin-4-yl)pyrrolidin-2-one] | 17.7 nmol | 3.8 |
| CCc1cnc(N2CCC(N3CC[C@H](Nc4c(F)cc(S(C)(=O)=O)cc4F)C3=O)CC2)nc1 [Example 21, (S)-3-(2,6-difluoro-4-(methylsulfonyl)phenylamino)-1-(1-(5-ethylpyrimidin-2-yl)piperidin-4-yl)pyrrolidin-2-one] | 6.6 nmol | 1.9 |
| O=C1[C@@H](Oc2ccc(-n3cncn3)cc2)CCN1C1CCN(c2ncc(C(F)(F)F)cc2Cl)CC1 [Example 141, (S)-3-(4-(1H-1,2,4-triazol-1-yl)phenoxy)-1-(1-(3-chloro-5-(trifluoromethyl)pyridin-2-yl)piperidin-4-yl)pyrrolidin-2-one] | 15.5 nmol | 3.7 |
| CS(=O)(=O)c1ccc(N[C@H]2CCN(C3CCN(c4ncc(Cl)nc4Cl)CC3)C2=O)cn1 [Example 161, (S)-1-(1-(3,5-dichloropyrazin-2-yl)piperidin-4-yl)-3-(6-(methylsulfonyl)pyridin-3-ylamino)pyrrolidin-2-one] | 13.8 nmol | 3.6 |
| CCS(=O)(=O)c1ccc(N[C@H]2CCN(C3CCN(c4ncc(Cl)cc4F)CC3)C2=O)cn1 [Example 127, (S)-1-(1-(5-chloro-3-fluoropyridin-2-yl)piperidin-4-yl)-3-(6-(ethylsulfonyl)pyridin-3-ylamino)pyrrolidin-2-one] | 13.0 nmol | 2.7 |
| CS(=O)(=O)c1ccc(N[C@H]2CCN(C3CCN(c4ncc(C(F)(F)F)cc4Cl)CC3)C2=O)cn1 [Example 119, (S)-1-(1-(3-chloro-5-(trifluoromethyl)pyridin-2-yl)piperidin-4-yl)-3-(6-(methylsulfonyl)pyridin-3-ylamino)pyrrolidin-2-one] | 16.3 nmol | 3.3 |
| CS(=O)(=O)c1cc(F)c(N[C@H]2CCN(C3CCN(c4ccc(C(F)(F)F)cn4)CC3)C2=O)cc1F [Example 104, (S)-3-(2,5-difluoro-4-(methylsulfonyl)phenyl-amino)-1-(1-(5-(trifluoro-methyl)pyridin-2-yl)piperidin-4-yl)pyrrolidin-2-one] | 13.5 nmol | 2.8 |
| CS(=O)(=O)c1ccc(N[C@H]2CCN(C3CCN(c4cnc(C#N)cn4)CC3)C2=O)c(F)c1 [Example 14, (S)-5-(4-(3-(2-fluoro-4-(methylsulfonyl)phenylamino)-2-oxopyrrolidin-1-yl)piperidin-1-yl)pyrazine-2-carbonitrile] | 32.3 nmol | 5.5 |
| Cc1cc(N[C@H]2CCN(C3CCN(c4cnc(Cl)cn4)CC3)C2=O)cnc1S(C)(=O)=O (stereo in doubt) [Example 135, 1-(1-(5-chloropyrazin-2-yl)piperidin-4-yl)-3-(5-methyl-6-(methylsulfonyl)pyridin-3-ylamino)pyrrolidin-2-one] | 31.0 nmol | 6.6 |
| O=C(c1ccc(O[C@H]2CCN(C3CCN(c4ncc(Cl)cc4F)CC3)C2=O)cn1)N1CCCC1 [Example 148, (S)-1-(1-(5-chloro-3-fluoropyridin-2-yl)piperidin-4-yl)-3-(6-(pyrrolidine-1-carbonyl)pyridin-3-yloxy)pyrrolidin-2-one] | 14.4 nmol | 2.4 |
| CS(=O)(=O)c1ccc(N[C@H]2CCN(C3CCN(c4ncc(C(F)(F)F)cc4Cl)CC3)C2=O)c(F)c1 [Example 102, (S)-1-(1-(3-chloro-5-(trifluoromethyl)pyridin-2-yl)piperidin-4-yl)-3-(2-fluoro-4-(methylsulfonyl)phenylamino) pyrrolidin-2-one] | 15.5 nmol | 3.4 |
| CCc1cnc(N2CCC(N3CCC[C@H](Nc4cc(C)c(S(C)(=O)=O)cc4F)C3=O)CC2)nc1 [Example 58, (S)-1′-(5-ethylpyrimidin-2-yl)-3-(2-fluoro-5-methyl-4-(methylsulfonyl)phenylamino)-[1,4′-bipiperidin]-2-one] | 13.2 nmol | 2.4 |
| N#Cc1ccc(N[C@H]2CCN(C3CCN(c4ncc(C(F)(F)F)cc4Cl)CC3)C2=O)nn1 [Example 150, (S)-6-(1-(1-(3-chloro-5-(trifluoromethyl)pyridin-2-yl)piperidin-4-yl)-2-oxopyrrolidin-3-ylamino)pyridazine-3-carbonitrile] | 17.1 nmol | 3.4 |
| CCc1cnc(N2CCC(N3CC[C@H](Oc4cc(C)c(S(C)(=O)=O)cc4F)C3=O)CC2)nc1 [Example 96, (S)-1-(1-(5-ethylpyrimidin-2-yl)piperidin-4-yl)-3-(2-fluoro-5-methyl-4-(methylsulfonyl)phenoxy)pyrrolidin-2-one] | 31.7 nmol | 3.5 |
| CS(=O)(=O)c1ccc(N[C@H]2CCN(C3CCN(c4ncc(Cl)cn4)CC3)C2=O)c(F)c1 [Example 10, (S)-1-(1-(5-chloropyrimidin-2-yl)piperidin-4-yl)-3-(2-fluoro-4-(methylsulfonyl)phenylamino)pyrrolidin-2-one] | 6.5 nmol | 2.1 |
| COC(=O)c1ccc(O[C@H]2CCN(C3CCN(c4ncc(C(F)(F)F)cc4Cl)CC3)C2=O)c(F)c1 [Example 140, (S)-methyl 4-(1-(1-(3-chloro-5-(trifluoro-methyl)pyridin-2-yl)piperidin-4-yl)-2-oxopyrrolidin-3-yloxy)-3-fluorobenzoate] | 12.2 nmol | 2.7 |
| Cc1cnc(N2CCC(N3CC[C@H](Nc4ccc(S(C)(=O)=O)cc4F)C3=O)CC2)c(C#N)n1 [Example 134, (S)-3-(4-(3-(2-fluoro-4-(methylsulfonyl)phenyl-amino)-2-oxopyrrolidin-1-yl)piperidin-1-yl)-6-methylpyrazine-2-carbonitrile] | 35.7 nmol | 2.7 |
